Measurements as given in US6143759A, “Tetrazoles” (BYK Gulden Lomberg Chemische Fabrik GmbH, priority 1997, dated 2000).
Structures can show the parent of a compound that is named as a salt.

How the values were obtained:
[1] = biological target: T1, PDE3 (Homo sapiens, UniProt Q14432); assay: Inhibition of PDE isoenzymes: PDE3 (cGMP-inhibited), homogenates of human blood platelets; type: biochemical; conditions: cAMP or cGMP as substrate, 0.5 μM, pH 7.4, 37° C., 15 min; for IC50: read-out: PDE3 -log IC50 (converted)
T1 construct: were investigated in homogenates of human blood platelets; from tissue; host or cells: homogenates of human blood platelets
T1 sequence (Q14432 whole entry): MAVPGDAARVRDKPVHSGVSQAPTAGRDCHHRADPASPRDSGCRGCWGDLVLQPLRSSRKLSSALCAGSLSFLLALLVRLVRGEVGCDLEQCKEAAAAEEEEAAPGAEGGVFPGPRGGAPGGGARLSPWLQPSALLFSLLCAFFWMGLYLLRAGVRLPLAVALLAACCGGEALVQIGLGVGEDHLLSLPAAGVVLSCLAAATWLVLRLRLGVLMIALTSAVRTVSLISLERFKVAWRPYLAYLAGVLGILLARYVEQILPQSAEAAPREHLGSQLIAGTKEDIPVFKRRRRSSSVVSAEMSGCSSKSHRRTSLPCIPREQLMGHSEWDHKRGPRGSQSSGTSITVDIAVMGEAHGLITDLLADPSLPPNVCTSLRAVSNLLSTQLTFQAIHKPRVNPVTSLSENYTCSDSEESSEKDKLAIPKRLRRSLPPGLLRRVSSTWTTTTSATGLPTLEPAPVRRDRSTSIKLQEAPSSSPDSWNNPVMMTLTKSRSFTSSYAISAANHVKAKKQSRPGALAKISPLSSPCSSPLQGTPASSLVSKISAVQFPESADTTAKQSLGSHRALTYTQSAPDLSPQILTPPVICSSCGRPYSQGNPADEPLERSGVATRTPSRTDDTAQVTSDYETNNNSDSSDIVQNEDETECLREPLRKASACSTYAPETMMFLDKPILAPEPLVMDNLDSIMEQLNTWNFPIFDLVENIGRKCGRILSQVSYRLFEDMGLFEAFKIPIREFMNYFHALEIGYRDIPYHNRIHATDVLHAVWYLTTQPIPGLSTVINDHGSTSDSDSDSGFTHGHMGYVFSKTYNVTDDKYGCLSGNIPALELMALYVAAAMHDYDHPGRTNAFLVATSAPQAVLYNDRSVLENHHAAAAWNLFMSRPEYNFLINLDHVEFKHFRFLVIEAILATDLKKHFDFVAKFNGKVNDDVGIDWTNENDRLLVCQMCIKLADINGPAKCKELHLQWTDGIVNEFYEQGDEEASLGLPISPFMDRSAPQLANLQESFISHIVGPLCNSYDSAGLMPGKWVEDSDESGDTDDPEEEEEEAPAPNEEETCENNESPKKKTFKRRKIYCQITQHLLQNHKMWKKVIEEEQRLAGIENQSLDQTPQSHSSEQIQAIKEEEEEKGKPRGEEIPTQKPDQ

[2] = biological target: PDE4; assay: Inhibition of PDE isoenzymes: PDE4 (cAMP-specific), cytosol of human polymorphonuclear leukocytes, cAMP as substrate; type: biochemical; conditions: cytosol of human PMNL; 0.5 μM cAMP; motapizone (1 μM) present; pH 7.4, 37° C., 15 min

SMILES | IC50 [1] | PDE4 -log IC50 [2] | PDE3 -log IC50 [1]
CCn1nnc(-c2ccc(C3=N[C@H]4CCN(C)C[C@H]4c4cc(OC)c(OC)cc43)cc2)n1 (single isomer, unassigned) [Compound 2, (-)-cis-8,9-Dimethoxy-2-methyl-6-[4-(2H-2-ethyltetrazol-5-yl)phenyl]-1,2,3,4,4a,10b-hexahydrobenzo[c][1,6]naphthyridine hydrochloride] | 0.457 µM | 6.13 mol/l | –
CCOc1cc2c(cc1OCC)[C@@H]1CN(C)CC[C@@H]1N=C2c1ccc(-c2nnn(Cc3ccc(OC)cc3)n2)cc1 (single isomer, unassigned) [Compound 5, (-)-cis-8,9-Diethoxy-2-methyl-6-[[4-[2H-2-(4-methoxybenzyl)tetrazol-5-yl]-phenyl]]-1,2,3,4,4a,10b-hexahydrobenzo[c][1,6]naphthyridine hydrochloride] | 0.204 µM | 8.03 mol/l | –
CCOc1cc2c(cc1OC)[C@@H]1CN(C)CC[C@@H]1N=C2c1ccc(-c2nnn(CC)n2)cc1 (single isomer, unassigned) [Compound 10, (-)-cis-8-Ethoxy-9-methoxy-2-methyl-6-[4-(2H-2-ethyltetrazol-5-yl)-phenyl]-1,2,3,4,4a,10b-hexahydrobenzo[c][1.6]naphthyridine hydrochloride] | 0.275 µM | 6.08 mol/l | –
CCOc1cc2c(cc1OCC)[C@@H]1CN(C)CC[C@@H]1N=C2c1ccc(-c2nnn(C)n2)cc1 (single isomer, unassigned) [Compound 6, (-)-cis-8,9-Diethoxy-2-methyl-6-[4-(2H-2-methyltetrazol-5-yl)phenyl]-1,2,3,4,4a,10b-hexahydrobenzo[c][1,6]naphthyridine hydrochloride] | – | 7.26 mol/l | 6.52 mol/l
CCOc1cc2c(cc1OCC)[C@@H]1CN(C)CC[C@@H]1N=C2c1ccc(-c2nnn(CC3CCCCC3)n2)cc1 (single isomer, unassigned) [Compound 8, (-)-cis-8,9-Diethoxy-2-methyl-6-[4-(2H-2-cyclohexylmethyltetrazol-5-yl)phenyl]-1,2,3,4,4a,10b-hexahydrobenzo[c][1,6]naphthyridine hydrochloride] | 0.309 µM | 7.64 mol/l | –
COc1ccc(Cn2nnc(-c3ccc(C4=N[C@H]5CCN(C)C[C@H]5c5cc(OC)c(OC)cc54)cc3)n2)cc1 (single isomer, unassigned) [Compound 7, (-)-cis-8,9-Dimethoxy-2-methyl-6-[[4-[2H-2-(4-methoxybenzyl)tetrazol-5-yl]phenyl]]-1,2,3,4,4a,10b-hexahydrobenzo[c][1,6]naphthyridine hydrochloride] | 0.148 µM | 6.74 mol/l | –
CCOc1cc2c(cc1OC)C(c1ccc(-c3nn[nH]n3)cc1)=N[C@H]1CCN(C)C[C@@H]21 (single isomer, unassigned) [Compound 18, (-)-cis-9-Ethoxy-8-methoxy-2-methyl-6-[4-(1H- and 2H-2-tetrazol-5-yl)-phenyl]-1,2,3,4,4a,10b-hexahydrobenzo[c][1.6]naphthyridine] | 0.145 µM | 7.81 mol/l | –
CCOc1cc2c(cc1OC)C(c1cccc(-c3nnn(CC)n3)c1)=N[C@H]1CCN(C)C[C@@H]21 (single isomer, unassigned) [Compound 12, (-)-cis-9-Ethoxy-8-methoxy-2-methyl-6-[3-(2H-2-ethyltetrazol-5-yl)-phenyl]-1,2,3,4,4a,10b-hexahydrobenzo[c][1.6]naphthyridine hydrochloride] | 0.708 µM | 7.82 mol/l | –

More lines, now with the values ahead:

IC50 [1] | PDE4 -log IC50 [2] | PDE3 -log IC50 [1] | SMILES
0.631 µM | 8.24 mol/l | – | CCCCCCn1nnc(-c2ccc(C3=N[C@H]4CCN(C)C[C@H]4c4cc(OCC)c(OC)cc43)cc2)n1 (single isomer, unassigned) [Compound 15, (-)-cis-9-Ethoxy-8-methoxy-2-methyl-6-[4-(2H-2-hexyltetrazol-5-yl)-phenyl]-1,2,3,4,4a,10-hexahydrobenzo[c][1.6]naphthyridine hydrochloride]
– | 7.40 mol/l | 5.66 mol/l | CCOc1cc2c(cc1OCC)[C@@H]1CN(C)CC[C@@H]1N=C2c1cccc(-c2nnn(CC)n2)c1 (single isomer, unassigned) [Compound 11, (-)-cis-8,9-Diethoxy-2-methyl-6-[3-(2H-2-ethyltetrazol-5-yl)-phenyl]-1,2,3,4,4a,10b-hexahydrobenzo[c][1,6]naphthyridine hydrochloride]
0.148 µM | 7.96 mol/l | – | CCOc1cc2c(cc1OC)C(c1ccc(-c3nnn(CC)n3)cc1)=N[C@H]1CCN(C)C[C@@H]21 (single isomer, unassigned) [Compound 9, (-)-(cis)-9-Ethoxy-8-methoxy-2-methyl-6-[4-(2H-2-ethyltetrazol-5-yl)phenyl]-1,2,3,4,4a,10b-hexahydrobenzo[c][1.6]naphthyridine]
0.219 µM | 7.94 mol/l | – | CCCn1nnc(-c2ccc(C3=N[C@H]4CCN(C)C[C@H]4c4cc(OCC)c(OC)cc43)cc2)n1 (single isomer, unassigned) [Compound 16, (-)-cis-9-Ethoxy-8-methoxy-2-6-[4-(2H-2-propyltetrazol-5-yl)-phenyl]-1,2,3,4,4a,10b-hexahydrobenzo[c][1.6]naphthyridine hydrochloride]
0.195 µM | 7.44 mol/l | – | CCOc1cc2c(cc1OCC)[C@@H]1CN(C)CC[C@@H]1N=C2c1ccc(-c2nn[nH]n2)cc1 (single isomer, unassigned) [Compound 17, (-)-cis-8.9-Diethoxy-2-methyl-6-[4-(1H- and 2H-2-tetrazol-5-yl)-phenyl]-1,2,3,4,4a,10b-hexahydrobenzo[c][1.6]naphthyridine]
0.166 µM | 6.42 mol/l | – | COc1cc2c(cc1OC)[C@@H]1CN(C)CC[C@@H]1N=C2c1ccc(-c2nn[nH]n2)cc1 (single isomer, unassigned) [Compound 1, (-)-cis-8,9-Dimethoxy-2-methyl-6-[4-(1H- and 2H-tetrazol-5-yl)phenyl]-1,2,3,4,4a,10b-hexahydrobenzo[c][1,6]naphthyridine]
0.209 µM | 7.64 mol/l | – | CCOc1cc2c(cc1OCC)[C@@H]1CN(C)CC[C@@H]1N=C2c1ccc(-c2nnn(CC)n2)cc1 (single isomer, unassigned) [Compound 3, (-)-cis-8,9-Diethoxy-2-methyl-6-[4-(2H-2-ethyltetrazol-5-yl)phenyl]-1,2,3,4,4a,10b-hexahydrobenzo[c][1,6]naphthyridine hydrochloride]
0.355 µM | 5.92 mol/l | – | COc1cc2c(cc1OC)[C@@H]1CN(C)CC[C@@H]1N=C2c1ccc(-c2nnn(C)n2)cc1 (single isomer, unassigned) [Compound 4, (-)-cis-8,9-Dimethoxy-2-methyl-6-[4-(2H-2-methyltetrazol-5-yl)phenyl]-1,2,3,4,4a,10b-hexahydrobenzo[c][1,6]naphthyridine]
